Laboratory results reported in patent publication US20240132450A1, “MODULATORS OF G PROTEIN-COUPLED RECEPTOR 88” (ACADIA Pharmaceuticals Inc., priority 2020, published 2024).
Where two headings read alike, the source gives them in different places.

Experiments:
[1] = Hepatocyte stability (mouse); assay type: in vitro ADME; conditions: test compound 3 μM, 60 min; for hepatocyte CLint at 3 μM: mouse, cryopreserved pooled hepatocytes in suspension, read-out: Mouse heps Clint
Procedure: (iii) Hepatocyte Stability (Human, Mouse, Rat or Dog)
Test compound (3 μM) is incubated with cryopreserved hepatocytes in suspension. Samples are removed at 6 time points over the course of a 60 min experiment and test compound is analysed by LC-MS/MS. An intrinsic clearance value (CLint) with standard error and half-life (t %) are calculated. Cryopreserved pooled hepatocytes are stored in liquid nitrogen prior to use. […] The final incubation volume is 500 μL. A control incubation is included for each compound tested where lysed cells are added instead of viable cells. Two control compounds are included with each species.
The reactions are stopped by transferring 50 μL of incubate to 100 μL methanol containing internal standard at the appropriate time points. The control (lysed cells) is incubated for 60 min only. The termination plates are centrifuged at 2500 rpm at 4° C. for 30 min to precipitate the protein. Following protein precipitation, the sample supernatants are combined in cassettes of up to 4 compounds and analysed using generic LC-MS/MS conditions. From a plot of In peak area ratio (compound peak area/internal standard peak area) against time, the gradient of the line is determined. Subsequently, half-life (t %) and intrinsic clearance (CLint) are calculated using the equations below: […]

[2] = target: T1, dopamine uptake transporter (rat DAT) (Rattus norvegicus, UniProt P23977); assay: Dopamine transporter uptake assay; assay type: biochemical; conditions: rat striatum synaptosomes, [3H]dopamine
T1 construct: is determined in rat striatum synaptosomes following [^3H]dopamine scintillation counting; from tissue; host or cells: rat striatum synaptosomes
T1 sequence (P23977 whole entry): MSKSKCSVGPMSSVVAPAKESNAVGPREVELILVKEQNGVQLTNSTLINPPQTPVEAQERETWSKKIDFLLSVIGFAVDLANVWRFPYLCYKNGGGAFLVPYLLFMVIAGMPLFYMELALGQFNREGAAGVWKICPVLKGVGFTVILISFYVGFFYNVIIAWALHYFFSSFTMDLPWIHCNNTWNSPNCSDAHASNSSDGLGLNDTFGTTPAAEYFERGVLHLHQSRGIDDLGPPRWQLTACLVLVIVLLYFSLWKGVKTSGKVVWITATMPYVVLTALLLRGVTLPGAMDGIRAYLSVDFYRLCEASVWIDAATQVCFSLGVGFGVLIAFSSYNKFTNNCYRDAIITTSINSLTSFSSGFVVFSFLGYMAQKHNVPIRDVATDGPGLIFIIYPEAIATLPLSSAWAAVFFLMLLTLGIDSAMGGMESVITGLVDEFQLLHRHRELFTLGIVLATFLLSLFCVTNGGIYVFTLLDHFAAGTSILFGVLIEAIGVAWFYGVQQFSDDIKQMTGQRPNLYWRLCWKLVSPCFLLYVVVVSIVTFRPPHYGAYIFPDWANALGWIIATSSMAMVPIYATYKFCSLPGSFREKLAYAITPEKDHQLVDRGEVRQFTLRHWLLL

[3] = target: hGPR88 receptor (Homo sapiens, UniProt Q9GZN0); assay: hGPR88-HEK cAMP accumulation assay; conditions: HEK-293 cells expressing human recombinant GPR88, forskolin 200 nM, High/Medium/Low bands
Sequence of hGPR88 receptor (Q9GZN0 whole entry): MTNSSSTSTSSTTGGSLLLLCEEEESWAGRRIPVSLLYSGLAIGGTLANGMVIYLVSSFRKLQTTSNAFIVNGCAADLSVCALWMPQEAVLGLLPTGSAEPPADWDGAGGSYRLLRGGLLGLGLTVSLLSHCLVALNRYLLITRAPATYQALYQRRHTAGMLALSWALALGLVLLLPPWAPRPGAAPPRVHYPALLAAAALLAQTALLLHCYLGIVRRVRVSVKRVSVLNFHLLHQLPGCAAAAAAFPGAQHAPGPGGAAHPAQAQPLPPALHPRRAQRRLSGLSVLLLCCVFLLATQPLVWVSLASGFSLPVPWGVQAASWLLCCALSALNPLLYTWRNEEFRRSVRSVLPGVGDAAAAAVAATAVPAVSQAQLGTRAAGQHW

[4] = read-out: GRP88 agonist activity (EC50)

Row | hepatocyte CLint at 3 μM [1] [µL/min/1e6 cells] | EC50 ([3]; GRP88 agonist activity (EC50)) [nM] | Inhibition of dopamine uptake transporter (% inhibition at 10 μM compound) [2] [% inhibition] | SMILES | also measured
1 | 14 | < 1000 | 12 | CS(=O)(=O)c1ccc(-c2ccc(NC(=O)C3CC3c3ccccn3)cc2)cc1 (racemic) [Example 85, (rac-trans)-N-(4′-(methylsulfonyl)-[1,1′-biphenyl]-4-yl)-2-(pyridin-2-yl)cyclopropane-1-carboxamide] | –
2 | 31 | < 1000 | 1 | O=C(Nc1ccc(-c2ccc(OC3CC3)cc2)cc1)C1CC1c1ccccn1 (racemic) [Example 87, (rac-trans)-N-(4′-cyclopropoxy-[1,1′-biphenyl]-4-yl)-2-(pyridin-2-yl)cyclopropane-1-carboxamide] | –
3 | 30 | < 1000 | – | COCc1ccc(-c2ccc(NC(=O)C(C)(C)Oc3ccc(Cl)cc3)cc2)cc1 [Example 3] | –
4 | 51 | < 1000 | – | COCc1ccc(-c2ccc(NC(=O)C(C)(C)Oc3ccccc3)cc2)cc1 [Example 4, N-(4′-(methoxymethyl)-[1,1′-biphenyl]-4-yl)-2-methyl-2-phenoxypropanamide] | –
5 | 39 | 1000 to 5000 | – | CCCc1ccc(C23CC(NC(=O)C(C)(C)Oc4ccc(F)cc4)(C2)C3)cc1 [Example 9, 2-(4-fluorophenoxy)-2-methyl-N-(3-(4-propylphenyl)bicyclo[1.1.1]pentan-1-yl)propenamide] | –
6 | 41 | < 1000 | – | CC(C)(Oc1ccc(F)cc1)C(=O)Nc1ccc(-c2ccc(CN3CCOCC3)cc2)cc1 [Example 25, 2-(4-fluorophenoxy)-2-methyl-N-(4′-(morpholinomethyl)-[1,1′-biphenyl]-4-yl)propenamide] | –
7 | 71 | < 1000 | – | COCc1ccc(-c2ccc(NC(=O)C3(Oc4ccc(F)cc4)CC3)cc2)cc1 [Example 53, 1-(4-fluorophenoxy)-N-(4′-(methoxymethyl)-[1,1′-biphenyl]-4-yl)cyclopropane-1-carboxamide] | –
8 | 37 | < 1000 | – | COCc1ccc(-c2ccc(NC(=O)C(C)(C)Oc3ccc(C#N)cc3)cc2)cc1 [Example 68, 2-(4-cyanophenoxy)-N-(4′-(methoxymethyl)-[1,1′-biphenyl]-4-yl)-2-methylpropanamide] | –
9 | 47 | < 1000 | – | CC(C)Oc1ccc(-c2ccc(NC(=O)C(C)(C)Oc3ccc(F)cc3)cc2)cn1 [Example 92, 2-(4-fluorophenoxy)-N-(4-(6-isopropoxypyridin-3-yl)phenyl)-2-methylpropanamide] | –
10 | – | 1000 to 5000 | 8 | COCc1ccc([C@]23C[C@](NC(=O)C(C)(C)Oc4ccc(F)cc4)(C2)C3)cc1 [Example 135, 2-(4-fluorophenoxy)-N-(3-(4-(methoxymethyl)phenyl)bicyclo[1.1.1]pentan-1-yl)-2-methylpropanamide] | –

The next lines start with the molecule.

Row | SMILES | hepatocyte CLint at 3 μM [1] [µL/min/1e6 cells] | EC50 ([3]; GRP88 agonist activity (EC50)) [nM] | Inhibition of dopamine uptake transporter (% inhibition at 10 μM compound) [2] [% inhibition] | also measured
11 | COCc1ccc(-c2ccc(NC(=O)C3CC3c3ccccn3)cc2)cc1 (racemic) [Example 1, (rac-trans)-N-(4′-(methoxymethyl)-[1,1′-biphenyl]-4-yl)-2-(pyridin-2-yl)cyclo propane-1-carboxamide] | 65 | < 1000 | – | Inhibition of dopamine uptake transporter (% inhibition at 10 μM compound) ([2]; 10 µM): 11 % inhibition
12 | COCc1ccc(-c2ccc(NC(=O)C3CC3c3ccccn3)cc2)cc1 (racemic) [Example 18, N-(4′-(methoxymethyl)-[1,1′-biphenyl]-4-yl)-2-(pyridin-2-yl)cyclopropane-1-carboxamide] | – | – | – | Inhibition of dopamine uptake transporter (% inhibition at 10 μM compound) ([2]; 10 µM): 0 % inhibition
13 | COCc1ccc(-c2ccc(NC(=O)C3CC3c3ccccn3)nc2)cc1 (racemic) [Example 45, (rac-trans)-N-(5-(4-(methoxymethyl)phenyl)pyridin-2-yl)-2-(pyridin-2-yl)cyclopropane-1-carboxamide] | – | – | 28 | –
14 | CCOc1ccc(-c2ccc(NC(=O)C3CC3c3ccccn3)cc2)cn1 (racemic) [Example 75, (rac-trans)-N-(4-(6-ethoxypyridin-3-yl)phenyl)-2-(pyridin-2-yl)cyclopropane-1-carboxamide] | – | – | – | Inhibition of dopamine uptake transporter (% inhibition at 10 μM compound) ([2]; 10 µM): 5 % inhibition; EC50 [3, 4]: 1000 to 5000 nM
15 | CCOc1ccc(-c2ccc(NC(=O)C3CC3c3ccccn3)cc2)cn1 (racemic) [Example 76, (rac-trans)-N-(4-(6-ethoxypyridin-3-yl)phenyl)-2-(pyridin-2-yl)cyclopropane-1-carboxamide] | – | – | – | Mouse heps Clint ([1]; mouse cryopreserved hepatocytes): 30 μL/min/10^6 cells; Inhibition of dopamine uptake transporter (% inhibition at 10 μM compound) ([2]; 10 µM): 7 % inhibition; EC50 [3, 4]: 1000 to 5000 nM
16 | COCc1ccc(C23CC(NC(=O)C4CC4c4ccccn4)(C2)C3)cc1 (racemic) [Example 111, (rac-trans)-N-(3-(4-(methoxymethyl)phenyl)bicyclo[1.1.1]pentan-1-yl)-2-(pyridin-2-yl)cyclopropane-1-carboxamide] | 22 | 1000 to 5000 | 14 | –
17 | COCc1ccc([C@]23C[C@](NC(=O)C4CC4c4ccccn4)(C2)C3)nc1 (mixture of isomers) [Example 136, N-(3-(5-(methoxymethyl)pyridin-2-yl)bicyclo[1.1.1]pentan-1-yl)-2-(pyridin-2-yl)cyclopropane-1-carboxamide] | – | > 5000 | 2 | –
18 | CCCc1ccc([C@]23C[C@](NC(=O)C4CC4c4ccccn4)(C2)C3)nc1 (mixture of isomers) [Example 137, N-(3-(5-propylpyridin-2-yl)bicyclo[1.1.1]pentan-1-yl)-2-(pyridin-2-yl)cyclopropane-1-carboxamide] | – | 1000 to 5000 | 10 | –
19 | COCc1ccc(-c2ccc(NC(=O)C3CC3c3ccccn3)cc2)cc1 (single isomer, unassigned) [Example 18, N-(4′-(methoxymethyl)-[1,1′-biphenyl]-4-yl)-2-(pyridin-2-yl)cyclopropane-1-carboxamide] | 70 | < 1000 | – | –
20 | O=C(Nc1ccc(-c2ccc(CN3CCOCC3)cc2)cc1)C1CC1c1ccccn1 (single isomer, unassigned) [Example 78, (1R*,2R*)-N-(4′-(morpholinomethyl)-[1,1′-biphenyl]-4-yl)-2-(pyridin-2-yl)cyclopropane-1-carboxamide] | – | – | 17 | –
21 | COCc1ccc(-c2ccc(NC(=O)C(C)(C)Oc3ccccn3)cc2)cc1 [Example 7, N-(4′-(methoxymethyl)-[1,1′-biphenyl]-4-yl)-2-methyl-2-(pyridin-2-yloxy)propanamide] | 46 | 1000 to 5000 | – | –
22 | COCc1ccc(-c2ccc(N(C)C(=O)C(C)(C)Oc3ccc(F)cc3)cc2)cc1 [Example 13, 2-(4-fluorophenoxy)-N-(4′-(methoxymethyl)-[1,1′-biphenyl]-4-yl)-N,2-dimethylpropanamide] | 90 | 1000 to 5000 | – | –
23 | CN(C)Cc1ccc(-c2ccc(NC(=O)C(C)(C)Oc3ccc(F)cc3)cc2)cc1 [Example 17, N-(4′-((dimethylamino)methyl)-[1,1′-biphenyl]-4-yl)-2-(4-fluorophenoxy)-2-methylpropanamide] | 37 | 1000 to 5000 | – | –
24 | COCc1ccc(-c2ccc3c(c2)CCN3C(=O)C(C)(C)Oc2ccc(F)cc2)cc1 [Example 32, 2-(4-fluorophenoxy)-1-(5-(4-(methoxymethyl)phenyl)indolin-1-yl)-2-methylpropan-1-one] | 65 | 1000 to 5000 | – | –
25 | CN(C)c1ncc(-c2ccc(NC(=O)C(C)(C)Oc3ccc(F)cc3)cc2)cn1 [Example 49, N-(4-(2-(dimethylamino)pyrimidin-5-yl)phenyl)-2-(4-fluorophenoxy)-2-methylpropanamide] | – | < 1000 | 0 | –
26 | CCOc1ccc(OC(C)(C)C(=O)Nc2ccc(-c3ccc(COC)cc3)cc2)cc1 [Example 70, 2-(4-ethoxyphenoxy)-N-(4′-(methoxymethyl)-[1,1′-biphenyl]-4-yl)-2-methylpropanamide] | 74 | < 1000 | – | –
27 | CN(C)c1ccc(-c2ccc(NC(=O)C(C)(C)Oc3ccc(F)cc3)cc2)cn1 [Example 79, N-(4-(6-(dimethylamino)pyridin-3-yl)phenyl)-2-(4-fluorophenoxy)-2-methylpropanamide] | – | < 1000 | 21 | –
28 | CCCc1ccc(-c2ccc(N(C[C@@H](N)[C@@H](C)CC)C(=O)[C@@H]3C[C@H]3c3ccccn3)cc2)cc1 [Literature comparative 2, 2-PCCA, reference compound] | – | – | 90 | –
